Experimental data published in patent US12167995B2, “[((1R,2S,5R)-2-isopropyl-5-methyl-cyclohexanecarbonyl)-amino]-acetic acid isopropyl ester for treatment of chronic cough” (AXALBION SA, priority 2019, dated 2024).

Columns and labels:
[1] = tested on: 87 primary molecular targets including 13 enzyme and 74 binding assays; experiment: Off-target pharmacology study (SafetyScreen87 assay); details: 100 μM AX-8
Text: In addition, an off-target pharmacology study (SafetyScreen87 assay by Eurofins Pharma Discovery Services) has been performed. This assay package consists of 87 primary molecular targets including 13 enzyme and 74 binding assays, representing potential safety issues.

[2] = tested on: refractory chronic cough (RCC); experiment: Clinical Trial 2: cough severity and associated sensations, 100 mm VAS; assay type: in vivo, human
Procedure: Cough Severity was scored on a 100 mm Visual Analog Scale (VAS) at the specified time points. The patient was asked to indicate their assessment by marking (e.g., with a pen) a position along a 100 mm line between two extremes, e.g., “no cough” and “worst cough”. Urge-to-cough was scored on a 100 mm VAS at the specified time points. Throat irritation was scored on a 100 mm VAS at the specified time points. Throat cooling was scored on a 100 mm VAS at the specified time points. At least 24 hours after the Baseline Visit cough monitor has been attached on Day 0, and preferably before 10 am, the following activities were performed by clinic staff (not specified by the order below): • Remove the Baseline Visit cough monitor. • Update medical history. • Record all concomitant medication use. • Inclusion/exclusion criteria review. • If all inclusion and exclusion criteria were met, enroll patient into study. • Vital signs: before dose and 4 hours after dose. • 12-lead ECG (before dose). • Laboratory tests: • Urine drugs-of-abuse testing. • Pharmacokinetic (PK) sample taken. • Provide subject with VAS diary and instruct them to complete VAS assessments at +5 and +6 hours at home (see below). • Before dosing, attach and activate Treatment Visit cough monitor. • Administer the dose of the study drug (preferably before 10 am). • Cough severity VAS assessment: • Prior to dose: • −30 minutes. • After dose: • +1, +2, +3, +4, +5, +6 hours. • Urge-to-cough VAS assessment: • Prior to dose: • −30 minutes. • After dose: • +1, +2, +3, +4, +5, +6 hours. • Throat irritancy VAS assessment: • Prior to dose: • −30 minutes. • After dose: • +1, +2, +3, +4, +5, +6 hours. • Throat cooling VAS assessment: • Prior to dose: • −30 minutes. • After dose: • +1, +2, +3, +4, +5, +6 hours. • GRCS assessment at 4 hours after dose. • Schedule Follow-Up Visit. • Once the Investigator confirmed it was safe to do so, the subject could leave the unit after the assessments 4 hours after dose were complete. At least 24 hours after the Treatment Visit cough monitor has been attached (on Day 1), the following activities were performed by clinic staff (not specified by the order below): • Remove the Treatment Visit cough monitor. • Collect and review the VAS diary for completeness. • Overall impression of the treatment day (24 hours) with: • Cough severity VAS assessment. • Urge-to-cough VAS assessment. • Throat irritancy VAS assessment. • Throat cooling VAS assessment. • GRCS assessment. • Record all adverse events. • Record all concomitant medication use. • Schedule End of Study visit. End of Study Visit (Visit 5): The following procedures and evaluations were performed at the clinic between Day 7 and 14. At this visit, the following procedures and assessments were performed by clinic staff (not specified by the order below): • Cough severity VAS assessment. • Urge-to-cough VAS assessment. • Throat irritancy VAS assessment. • GRCS assessment. • Vital signs. • Weight. • Physical examination. • 12-lead ECG. • Laboratory tests: • Hematology. • Chemistry. • Urinalysis. • Urine pregnancy test for females of childbearing potential. • Record all adverse events. • Record all concomitant medication use.

## CC(C)OC(=O)CNC(=O)[C@@H]1C[C@H](C)CC[C@H]1C(C)C [AX-8, [((1R,2S,5R)-2-isopropyl-5-methyl-cyclohexanecarbonyl)-amino]-acetic acid isopropyl ester]
[1]
  responses in SafetyScreen87 off-target panel: No significant responses were observed
[2]; >24-hour period after treatment, n=11, Screening 51.5
  Urge-to-Cough VAS, Median, Follow-Up (Visit 4): 46.0 mm
[2]; >24-hour period after treatment, n=11, Screening 55.0
  Throat Irritation VAS, Median, Follow-Up (Visit 4): 9.0 mm
[2]; >24-hour period after treatment, n=11, Screening 61.5
  Cough Severity VAS, Median, Follow-Up (Visit 4): 47.0 mm
[2]; Day 7 to 14, n=11
  Cough Severity VAS, Median, End of Study (Visit 5): 64.0 mm
  Throat Irritation VAS, Median, End of Study (Visit 5): 47.0 mm
  Urge-to-Cough VAS, Median, End of Study (Visit 5): 57.0 mm
[2]; FIG. 8
  time of apparent maximum improvement in urge-to-cough: about 3 hours
[2]; FIG. 10
  throat cooling VAS time course: increase only at 30 minutes
[2]; hourly for 6 hours after treatment, FIG. 7
  cough severity VAS time course: reduction from the first hour that persisted for the 6 hours of monitoring
[2]; hourly for 6 hours after treatment, FIG. 8
  urge-to-cough VAS time course: improvement from the first hour that persisted for the 6 hours of monitoring
[2]; hourly for 6 hours after treatment, FIG. 9, baseline lower on treatment day
  throat irritation VAS time course: improvement from the first hour that persisted for the 6 hours of monitoring
